Patent US5552520A, “Therapeutic peptide derivatives” (Biomeasure, Inc., priority 1994, dated 1996)
Numbered stars: 1 amine (or outer) side, 2 acyl side, 3 side chain; on linkers, the order of the positions; unused ones are H or OH. Bridge positions count the residues as written; N and C are the ends. Square brackets hold non-standard residues; d marks the D form. Peptide text beside a SMILES is read from it. * marks the point of attachment. X2 = O=C([C@@H](Cc1ccccc1)N(CC(CO)(CO)CO)[*:1])[*:2]; 2Nal = N[C@@H](Cc1ccc2ccccc2c1)C(=O)O; X3 = O=C(CN(C(CO)(CO)CO)[*:1])[*:2]; X4 = O=C(CN1CCN(CCO)CC1)*

What was measured:
[1] = tested on: stimulated growth hormone release; experiment: Growth Hormone (GH) Inhibition Assay in rats (D-Ala2-GRF stimulated GH); type: in vivo, male Sprague Dawley rats; conditions: s.c.; for Inhibition of stimulated growth hormone release (percentile control): 25 μg/kg
Experimental: Groups of five male Sprague Dawley rats (each having a weight between 250-300 g) were injected s.c. with a somatostatin derivative or saline. Thirty minutes prior to the selected post-drug time periods shown in table II (2 hours, 4 hours, 6 hours, 8 hours), rats were anesthetized with Nembutal i.p. (50 mg/kg). Fifteen minutes following anesthesia, an aliquot of blood was withdrawn by cardiac puncture over heparin to measure basal GH. Additionally, a s.c. injection of D-Ala^2 -GRF (10 μg/kg) was given. Fifteen minutes later, blood was withdrawn to quantitate the stimulated GH, which was measured in plasma using a radioimmunoassay supplied by NIADDKD. The percentage of GH inhibition was calculated from differences obtained between basal and stimulated GH values.
The efficacy of D-Phe-c[Cys-Tyr-D-Trp-Lys-Thr-Cys]-Nal-NH2 (SEQ ID NO. 113) (BIM-23060) in inhibiting growth hormone in rats is compared with other somatostatin derivatives (BIM-23167, BIM-23179, and BIM-23181) of the invention.
Additional experiments were conducted on D-Phe-c[Cys-Tyr-D-Trp-Lys-Abu-Cys]-Thr-NH2, (SEQ ID NO. 112) a somatostatin analog, and BIM-23190, BIM-23195 and BIM-23197, to determine the ED50 (i.e., the concentration of each compound required to inhibit fifty percent of growth hormone release after a specified time) of the respective compound. Experiments were conducted at a dose range of between 25 μg/kg and 0.25 μg/kg.

[2] = tested on: AR42J rat pancreas tumor cells; experiment: Antiproliferative assay on AR42J cells; type: cell-based; conditions: Concentration 100 nM, AR42J Rat Pancreas Tumor Cells after 8 days
Experimental: The purified somatostatin analogs described above were also tested for activity against rapidly proliferating cells.
^1 Concentration 100 nM, AR42J Rat Pancreas Tumor Cells after 8 days.

somatostatin receptor = target: T1, somatostatin receptor (Rattus norvegicus, UniProt P30680); experiment: Somatostatin binding assay: in vitro inhibition of binding of [125I-Tyr11]SRIF-14 to rat AR42J pancreas membranes; conditions: inhibition of [125I-Tyr11]SRIF-14 binding, read-out: IC50, in vitro binding affinity
T1 construct: SRIF-14 to rat AR42J pancreas membranes; endogenous in cells; host or cells: rat AR42J pancreatic cells (membrane preparation)
T1 sequence (P30680 whole entry): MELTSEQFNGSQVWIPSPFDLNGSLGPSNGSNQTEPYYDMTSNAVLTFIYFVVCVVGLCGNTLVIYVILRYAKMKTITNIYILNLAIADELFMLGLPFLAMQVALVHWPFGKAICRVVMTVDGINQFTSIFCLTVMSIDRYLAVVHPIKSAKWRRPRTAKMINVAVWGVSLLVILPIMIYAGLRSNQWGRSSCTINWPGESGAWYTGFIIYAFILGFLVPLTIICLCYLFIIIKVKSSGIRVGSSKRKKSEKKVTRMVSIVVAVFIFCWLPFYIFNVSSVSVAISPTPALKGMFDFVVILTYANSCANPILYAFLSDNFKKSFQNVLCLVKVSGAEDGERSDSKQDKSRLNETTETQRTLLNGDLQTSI

`CC[C@@H]1NC(=O)[C@H](CCCCN)NC(=O)[C@@H](Cc2c[nH]c3ccccc23)NC(=O)[C@H](Cc2ccc(O)cc2)NC(=O)[C@@H](NC(=O)[C@H](N)Cc2ccccc2)CSSC[C@@H](C(=O)N[C@H](C(N)=O)[C@@H](C)O)NC1=O` [BIM-23023, D-Phe-c[Cys-Tyr-D-Trp-Lys-Abu-Cys]-Thr-NH2, reference compound] was tested, and the “ED50, inhibition of stimulated growth hormone release” value (“ED50, inhibition” for short) ([1]; 2 Hours) was 0.48 µg/kg, the “ED50, inhibition” value ([1]; 4 Hours) was 1.11 µg/kg and the “ED50, inhibition” value ([1]; 6 Hours) was 2.26 µg/kg. The “ED50, inhibition” value ([1]; 8 Hours) was 4.32 µg/kg.
`CC(=O)OCC(COC(C)=O)(COC(C)=O)NC(=O)CCC(=O)N[C@H](Cc1ccc2ccccc2c1)C(=O)N[C@H]1CSSC[C@@H](C(=O)N[C@H](C(N)=O)[C@@H](C)O)NC(=O)[C@H](C(C)C)NC(=O)[C@H](CCCCN)NC(=O)[C@@H](Cc2c[nH]c3ccccc23)NC(=O)[C@H](Cc2ccc(O)cc2)NC1=O` [BIM-23107, (AcO-CH2)3 -C-NH-CO-(CH2)2 -CO-D-Nal-c[Cys-Tyr-D-Trp-Lys-Val-Cys]-Thr-NH2] was tested, and the “Cell growth (percent of control)” value [2] was 67.5% of control.
In the case of `CC(C)[C@@H]1NC(=O)[C@H](CCCCN)NC(=O)[C@@H](Cc2c[nH]c3ccccc23)NC(=O)[C@H](Cc2ccc(O)cc2)NC(=O)[C@@H](NC(=O)[C@@H](Cc2ccc3ccccc3c2)NC(=O)COC2=C(O)C(=O)O[C@@H]2[C@@H](O)CO)CSSC[C@@H](C(=O)N[C@H](C(N)=O)[C@@H](C)O)NC1=O` [BIM-23135], the “Cell growth (percent of control)” value [2] is reported as 62.9% of control.
Molecule `CC(C)[C@@H]1NC(=O)[C@H](CCCCN)NC(=O)[C@@H](Cc2c[nH]c3ccccc23)NC(=O)[C@H](Cc2ccc(O)cc2)NC(=O)[C@@H](NC(=O)[C@@H](Cc2ccc3ccccc3c2)NC(=O)CCC(=O)NC(CO)(CO)CO)CSSC[C@@H](C(=O)N[C@H](C(N)=O)[C@@H](C)O)NC1=O` [BIM-23158, (HO-CH2)3 -C-NH-CO-(CH2)2 -CO-D-Nal-c[Cys-Tyr-D-Trp-Lys-Val-Cys]-Thr-NH2] has an IC50 (somatostatin receptor) of 0.33 nM.
Work on `CC[C@@H]1NC(=O)[C@H](CCCCN)NC(=O)[C@@H](Cc2c[nH]c3ccccc23)NC(=O)[C@H](Cc2ccc(O)cc2)NC(=O)[C@@H](NC(=O)[C@@H](Cc2ccccc2)NC(=O)CCC(=O)NC(CO)(CO)CO)CSSC[C@@H](C(=O)N[C@H](C(N)=O)[C@@H](C)O)NC1=O` [BIM-23173, (HO-CH2)3 -C-NH-CO-(CH2)2 -CO-D-Phe-c[Cys-Tyr-D-Trp-Lys-Abu-Cys]-Thr-NH2] yielded an IC50 (somatostatin receptor) of 0.11 nM.
`C[C@@H](O)[C@@H]1NC(=O)[C@H](CCCCN)NC(=O)[C@@H](Cc2c[nH]c3ccccc23)NC(=O)[C@H](Cc2ccc(O)cc2)NC(=O)[C@@H](NC(=O)[C@@H](Cc2ccccc2)NC(=O)CNC(CO)(CO)CO)CSSC[C@@H](C(=O)N[C@@H](Cc2ccc3ccccc3c2)C(N)=O)NC1=O` [BIM-23179, (HO-CH2)3 -C-NH-CH2 -CO-D-Phe-c[Cys-Tyr-D-Trp-Lys-Thr-Cys]-Nal-NH2] (H-[X3][dF]CY[dW]KTC[2Nal]-NH2; disulfide 3-8) was tested, and the IC50 (somatostatin receptor) was 0.12 nM, the “Inhibition of stimulated growth hormone release (percentile control)” value (“Inhibition … (percentile control)” for short) ([1]; 2 Hours) was 92.79 percentile control and the “Inhibition … (percentile control)” value ([1]; 4 Hours) was 63.85 percentile control. The “Inhibition … (percentile control)” value ([1]; 6 Hours) was 67.78 percentile control and the “Inhibition … (percentile control)” value ([1]; 8 Hours) was 68.26 percentile control.
Molecule `CC[C@@H]1NC(=O)[C@H](CCCCN)NC(=O)[C@@H](Cc2c[nH]c3ccccc23)NC(=O)[C@H](Cc2ccc(O)cc2)NC(=O)[C@@H](NC(=O)[C@@H](Cc2ccccc2)NC(=O)CNC(CO)(CO)CO)CSSC[C@@H](C(=O)N[C@H](C(N)=O)[C@@H](C)O)NC1=O` [BIM-23182, (HO-CH2)3 -C-NH-CH2 -CO-D-Phe-c[Cys-Tyr-D-Trp-Lys-Abu-Cys]-Thr-NH2] has an IC50 (somatostatin receptor) of 0.12 nM.
`CC[C@@H]1NC(=O)[C@H](CCCCN)NC(=O)[C@@H](Cc2c[nH]c3ccccc23)NC(=O)[C@H](Cc2ccc(O)cc2)NC(=O)[C@@H](NC(=O)[C@@H](Cc2ccccc2)NC(=O)COC2=C(OCC(O)CO)C(=O)O[C@@H]2[C@@H](O)CO)CSSC[C@@H](C(=O)N[C@H](C(N)=O)[C@@H](C)O)NC1=O` (stereo partly drawn) [BIM-23183] was tested, and the “Cell growth (percent of control)” value [2] was 69.1% of control.
Molecule `CC[C@@H]1NC(=O)[C@H](CCCCN)NC(=O)[C@@H](Cc2c[nH]c3ccccc23)NC(=O)[C@H](Cc2ccc(O)cc2)NC(=O)[C@@H](NC(=O)[C@@H](Cc2ccccc2)NC(=O)CN2CCN(CCO)CC2)CSSC[C@@H](C(=O)N[C@H](C(N)=O)[C@@H](C)O)NC1=O` [BIM-23190] has an IC50 (somatostatin receptor) of 0.2 nM.
In the case of `C[C@@H](O)[C@@H]1NC(=O)[C@H](CCCCN)NC(=O)[C@@H](Cc2c[nH]c3ccccc23)NC(=O)[C@H](Cc2ccc(O)cc2)NC(=O)[C@@H](NC(=O)[C@@H](Cc2ccccc2)NC(=O)CN2CCN(CCO)CC2)CSSC[C@@H](C(=O)N[C@@H](Cc2ccc3ccccc3c2)C(N)=O)NC1=O` [BIM-23191] (X4-[dF]CY[dW]KTC[2Nal]-NH2; disulfide 2-7), the IC50 (somatostatin receptor) is reported as 0.08 nM.
`CC[C@@H]1NC(=O)[C@H](CCCCN)NC(=O)[C@@H](Cc2c[nH]c3ccccc23)NC(=O)[C@H](Cc2ccc(O)cc2)NC(=O)[C@@H](NC(=O)[C@@H](Cc2ccccc2)NCC(CO)(CO)CO)CSSC[C@@H](C(=O)N[C@H](C(N)=O)[C@@H](C)O)NC1=O` [BIM-23195, (Ho-CH2)3 C-CH2 -D-Phe-C[Cys-Tyr-D-Trp-Lys-Abu-Cys]-Thr-NH2] showed an IC50 (somatostatin receptor) of 0.08 nM.
Work on `CC[C@@H]1NC(=O)[C@H](CCCCN)NC(=O)[C@@H](Cc2c[nH]c3ccccc23)NC(=O)[C@H](Cc2ccc(O)cc2)NC(=O)[C@@H](NC(=O)[C@@H](Cc2ccccc2)NS(=O)(=O)CCNC(CO)(CO)CO)CSSC[C@@H](C(=O)N[C@H](C(N)=O)[C@@H](C)O)NC1=O` [BIM-23196] yielded an IC50 (somatostatin receptor) of 0.09 nM.
`CC[C@@H]1NC(=O)[C@H](CCCCN)NC(=O)[C@@H](Cc2c[nH]c3ccccc23)NC(=O)[C@H](Cc2ccc(O)cc2)NC(=O)[C@@H](NC(=O)[C@@H](Cc2ccccc2)NS(=O)(=O)CCN2CCN(CCO)CC2)CSSC[C@@H](C(=O)N[C@H](C(N)=O)[C@@H](C)O)NC1=O` [BIM-23197] was tested, and the IC50 (somatostatin receptor) was 0.29 nM.
Work on `C[C@@H](O)[C@@H]1NC(=O)[C@H](CCCCN)NC(=O)[C@@H](Cc2c[nH]c3ccccc23)NC(=O)[C@H](Cc2ccc(O)cc2)NC(=O)[C@@H](NC(=O)[C@@H](Cc2ccccc2)NCC(CO)(CO)CO)CSSC[C@@H](C(=O)N[C@@H](Cc2ccc3ccccc3c2)C(N)=O)NC1=O` [BIM-23201, (HO-CH2)3 -C-CH2 -D-Phe-c[Cys-Tyr-D-Trp-Lys-Thr-Cys]-Nal-NH2] (H-[X2]CY[dW]KTC[2Nal]-NH2; disulfide 2-7) yielded an IC50 (somatostatin receptor) of 0.14 nM.
With `CC[C@@H]1NC(=O)[C@H](CCCCN)NC(=O)[C@@H](Cc2c[nH]c3ccccc23)NC(=O)[C@H](Cc2ccc(O)cc2)NC(=O)[C@@H](NC(=O)[C@@H](Cc2ccccc2)NC(=O)CN2CCN(CCOCCO)CC2)CSSC[C@@H](C(=O)N[C@H](C(N)=O)[C@@H](C)O)NC1=O` [BIM-23202] the IC50 (somatostatin receptor) was 0.18 nM.
`C[C@H](N)C(=O)NCC(=O)N[C@H]1CSSC[C@@H](C(=O)O)NC(=O)[C@H](CO)NC(=O)[C@H]([C@@H](C)O)NC(=O)[C@H](Cc2ccccc2)NC(=O)[C@H]([C@@H](C)O)NC(=O)[C@H](CCCCN)NC(=O)[C@H](Cc2c[nH]c3ccccc23)NC(=O)[C@H](Cc2ccccc2)NC(=O)[C@H](Cc2ccccc2)NC(=O)[C@H](CC(N)=O)NC(=O)[C@H](CCCCN)NC1=O` [SRIF-14, reference compound] was tested, and the “Cell growth (percent of control)” value [2] was 91.3% of control.
With “D-Phe-c[Cys-Tyr-D-Trp-Lys-Thr-Cys]-Nal-NH2 [BIM-23060, reference compound]” the “Inhibition … (percentile control)” value ([1]; 2 Hours) was 86.39 percentile control, the “Inhibition … (percentile control)” value ([1]; 4 Hours) was 64.96 percentile control and the “Inhibition … (percentile control)” value ([1]; 6 Hours) was 47.62 percentile control. For the same molecule, the “Inhibition … (percentile control)” value ([1]; 8 Hours) was 38.15 percentile control.
